Measurements as given in patent US20090029984A1 (priority 2005, published 2009).
“And” between values parts separate entries of the source, which are not always exact repeats. Equal entries are not always repeated. “Also recorded” adds a separate entry of the source. Where two headings read alike, the source gives them in different places.

Experiments:
mice = details: mouse, in vivo
human CB2 receptor = target: T1, human CB2 receptor (Homo sapiens, UniProt P34972); experiment: Efficacy and potency at the human CB2 receptor expressed in CHO cells (cAMP, forskolin); type: cell-based
T1 construct: expressed in transfected cells; host or cells: CHO cells
T1 sequence (P34972 whole entry): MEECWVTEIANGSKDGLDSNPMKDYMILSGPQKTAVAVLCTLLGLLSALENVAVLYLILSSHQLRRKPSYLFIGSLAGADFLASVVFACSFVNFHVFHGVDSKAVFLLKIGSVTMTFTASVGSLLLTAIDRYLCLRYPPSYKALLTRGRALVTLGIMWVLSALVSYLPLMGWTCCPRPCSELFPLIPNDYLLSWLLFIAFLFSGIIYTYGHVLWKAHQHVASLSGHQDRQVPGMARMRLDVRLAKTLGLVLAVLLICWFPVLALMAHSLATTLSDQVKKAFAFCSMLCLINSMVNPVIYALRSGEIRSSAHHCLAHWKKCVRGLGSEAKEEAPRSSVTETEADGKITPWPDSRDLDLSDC

[1] = rat, cited from earlier work

COc1ccc2c3c1O[C@H]1[C@@H](O)C=C[C@H]4[C@@H](C2)N(C)CC[C@@]341 [Codeine, reference compound]
% of MPE (mice; iv): 44.2%
Tail flick latency (s) + s.e.m. at Tmax (mice; iv): 6.95 ± 0.84 s

CCOC(=O)c1c(C)cc2nc(COC(=O)NCCO)n(-c3ccccc3S(=O)(=O)NC)c(=O)c2c1C [Compound 1a, 2-(2-Hydroxy-ethylcarbamoyloxymethyl)-5,7-dimethyl-3-(2-methylsulfamoylphenyl)-4-oxo-3,4-dihydro-quinazoline-6-carboxylic acid ethyl ester]
EC50 (human CB2 receptor): 3.5 nM
Emax (human CB2 receptor; CHO, relative to maximal response (100%) obtained with CP 55940, human CB2): 107%
effect on tail flick latency (in words) (mice): had no effect on tail flick latency
effect on tail flick latency (in words) (mice; iv): had no effect on tail flick latency; also recorded: did not increase the tail flick latency
time of maximum effect post-injection (mice; iv): 40 min

Cl.O=C(NCCO)[C@H]1CCCN(Cc2nc(-c3cn(CC4CCS(=O)(=O)CC4)c4c(Cl)cccc34)ns2)C1 [Compound 2, (S)-7-Chloro-3-[(5-{[3-N-(2-hydroxyethyl)carboxamido]piperidin-1-yl}methyl)([1,2,4]-thiadiazol-3-yl)]-1-(1,1-dioxo-hexahydrothiopyran-4-yl)methyl-1H-indole, hydrochloride salt]
combination versus opioid on its own (in words) (mice): significantly different
time of maximum effect post-injection (mice; iv): 20 min
effect of co-administration on tail flick latency (in words) (mice; iv, hydrochloride salt): increased tail flick latency in a dose-dependent manner; also recorded: dose-dependent potentiation

Cc1c(C(=O)c2cccc3ccccc23)c2cccc3c2n1[C@H](CN1CCOCC1)CO3 [WIN55, 212-2]
brain-to-plasma ratio ([1]; Dyson et al 2005): 1.3-1.9

C=C(C)[C@@H]1CCC(C)=C[C@H]1c1c(O)cc(CCCCC)cc1O [cannabidiol]
brain-to-plasma ratio ([1]; Alozie et al 1980): 2.61

CCCCCc1cc(O)c2c(c1)OC(C)(C)c1ccc(C)cc1-2 [cannabinol]
brain-to-plasma ratio ([1]; Alozie et al 1980): 0.88

CN1CC[C@]23c4c5ccc(O)c4O[C@H]2[C@@H](O)C=C[C@H]3[C@H]1C5 [morphine, reference compound]
% of MPE (mice; iv): 47.7% and 42.9%

CCCCCc1cc(O)c2c(c1)OC(C)(C)[C@@H]1CCC(C)=C[C@@H]21 [Δ^9THC, Δ^9-tetrahydrocannabinol]
brain-to-plasma ratio ([1]; Alozie et al 1980): 0.96
brain-to-plasma ratio ([1]; Dyson et al 2005): 1.0
